Assay results: patent publication US5079152A, “Antibody combining sites that exhibit stereoselective synthase activity, and methods using the same” (Scripps Clinic and Research Foundation, priority 1987, dated 1992)
Like-named read-outs stand apart in the source and are kept apart here.

Tested on: monoclonal antibody 24B11 (receptor lactone synthase secreted by hybridoma 24B11, ATCC HB9488)
Assay: Kinetics of lactone-forming cyclization catalyzed by monoclonal receptor lactone synthase 24B11 (phenol release at 271 nm, Lineweaver-Burk)
Assay type: biochemical, mouse

kcat / kuncat (catalyzed versus uncatalyzed first order cyclization rate constant)	rate acceleration (presence versus absence of the catalytic lactone synthase molecule) [fold]	Km (racemic substrate ligand 20-100 uM, receptor 2 uM, 25 mM phosphate buffer pH 7.0, 25 degrees C, read-out: Km) [µM]	kcat (receptor 2 uM (IgG, 150,000 daltons), pH 7.0, 25 degrees C) [L/min]	Vmax (receptor 2 uM, substrate 20-100 uM, pH 7.0, 25 degrees C) [µM/min]	Km (in the absence of binding by the unreactive enantiomer, read-out: Km for the reactive enantiomer of the substrate ligand) [µM]	Structure (SMILES)
167	167	76	0.50	0.99		CC(=O)NCC(O)CCCC(=O)Oc1ccccc1 (racemic) [phenyl 6-acetamido-5-hydroxyhexanoate]
					~38	CC(=O)NCC(O)CCCC(=O)Oc1ccccc1 (single isomer, unassigned) [reactive enantiomer of the substrate ligand]
